Blank lines part the entries; values can stand above or below the compound they belong to. The source made the active and inactive calls.
What was measured:
[1] = P. falciparum late gametocyte killing, dose response, luminescence (AID 1117278); format: functional, cell-based;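 note: gametocytes exposed to compound for 24 hours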
[2] = Jurkat T cell cytotoxicity, dose response, cytotoxicity control for P. falciparum gametocyte viability project, luminescence (AID 1117277); format: functional, cell-based;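 note: potency reflects loss of cellular ATP meaning fewer viable cells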
Protein Tat = Protein Tat (Human immunodeficiency virus type 1 group M subtype B (isolate HXB2)(HIV-1), UniProt P04608); format: functional;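 note: tat binding to TAR RNA read out by fluorescence polarization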
Protein Tat, sequence (P04608 whole entry): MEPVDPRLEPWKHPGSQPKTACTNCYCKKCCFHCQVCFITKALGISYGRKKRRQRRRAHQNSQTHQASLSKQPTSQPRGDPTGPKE

[3] = RKO cell viability reduction, dose response, CellTiter-Glo luminescence (AID 1117322); format: functional
[4] = cytotoxicity toward HCT116 cells – cell-based, CellTiter-Glo luminescence, IC50, dose response (AID 1117332); format: functional; details: HCT-116
[5] = Concentration-dependent survival of SW480 colon cancer line, luminescence detection with CellTiter-Glo, half-maximal inhibitory concentration (AID 1117338); format: functional
[6] = SNU-C1 cell viability reduction, dose response, CellTiter-Glo luminescence (AID 1117323); format: functional, cell-based
[7] = HeLa 4N DNA content increase, dose response, cell-based, IC50 (AID 1117351); format: functional
[8] = CellTiter-Glo luminescent dose response of DLD-1 viability loss (AID 1117352); format: functional
[9] = cytotoxicity toward HT-29 cells – cell-based, CellTiter-Glo luminescence, IC50, dose response (AID 1117330); format: functional
[10] = cytotoxicity toward Colo320 cells – cell-based, CellTiter-Glo luminescence, IC50, dose response (AID 1117334); format: functional; details: COLO 320
[11] = HeLa 2N DNA content increase, dose response, cell-based, IC50 (AID 1117349); format: functional
Caspase-6 = molecular target: T1, Caspase-6 (Homo sapiens, UniProt P55212); test: human caspase-6 inhibitors, dose response, biochemical, VEID-R110 fluorescence, cherry-pick (AID 720632)
T1 sequence (P55212 whole entry): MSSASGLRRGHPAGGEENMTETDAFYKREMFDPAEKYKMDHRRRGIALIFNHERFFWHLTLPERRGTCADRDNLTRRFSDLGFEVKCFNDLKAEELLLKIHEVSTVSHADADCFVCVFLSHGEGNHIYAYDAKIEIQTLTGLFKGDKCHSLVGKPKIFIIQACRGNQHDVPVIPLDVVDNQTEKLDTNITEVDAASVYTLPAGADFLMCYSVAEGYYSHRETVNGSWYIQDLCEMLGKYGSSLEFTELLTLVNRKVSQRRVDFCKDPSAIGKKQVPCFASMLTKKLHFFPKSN

[12] = molecular target: Mitochondrial peptide methionine sulfoxide reductase (Bos taurus, UniProt P54149); test: Absorbance-based biochemical high throughput dose response assay for activators of Methionine sulfoxide reductase A (MsrA).; format: functional
Mitochondrial peptide methionine sulfoxide reductase, sequence (P54149 whole entry): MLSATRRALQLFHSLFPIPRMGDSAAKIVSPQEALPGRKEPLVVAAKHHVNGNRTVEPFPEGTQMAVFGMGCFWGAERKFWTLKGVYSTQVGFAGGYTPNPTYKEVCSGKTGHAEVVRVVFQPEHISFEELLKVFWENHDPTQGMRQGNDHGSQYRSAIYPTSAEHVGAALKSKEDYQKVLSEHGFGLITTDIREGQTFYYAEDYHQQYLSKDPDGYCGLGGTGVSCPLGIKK

Caspase-7 = molecular target: T2, Caspase-7 (Homo sapiens, UniProt P55210); test: human caspase-7 inhibitors, dose response, selectivity assay for caspase-6 inhibitor project, biochemical, DEVD-R110 fluorescence, cherry-pick (AID 743295)
T2 sequence (P55210 whole entry): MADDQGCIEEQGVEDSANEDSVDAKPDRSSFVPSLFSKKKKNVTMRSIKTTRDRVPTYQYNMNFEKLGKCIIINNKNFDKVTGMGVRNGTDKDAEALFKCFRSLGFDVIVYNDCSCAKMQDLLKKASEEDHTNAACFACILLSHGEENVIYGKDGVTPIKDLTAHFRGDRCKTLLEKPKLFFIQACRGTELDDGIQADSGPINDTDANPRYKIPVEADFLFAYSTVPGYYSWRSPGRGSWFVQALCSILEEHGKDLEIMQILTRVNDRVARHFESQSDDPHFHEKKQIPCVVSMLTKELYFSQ

[13] = molecular target: T3, Histone-lysine N-methyltransferase NSD2 (Homo sapiens, UniProt O96028); format: biochemical
T3 sequence (O96028 whole entry): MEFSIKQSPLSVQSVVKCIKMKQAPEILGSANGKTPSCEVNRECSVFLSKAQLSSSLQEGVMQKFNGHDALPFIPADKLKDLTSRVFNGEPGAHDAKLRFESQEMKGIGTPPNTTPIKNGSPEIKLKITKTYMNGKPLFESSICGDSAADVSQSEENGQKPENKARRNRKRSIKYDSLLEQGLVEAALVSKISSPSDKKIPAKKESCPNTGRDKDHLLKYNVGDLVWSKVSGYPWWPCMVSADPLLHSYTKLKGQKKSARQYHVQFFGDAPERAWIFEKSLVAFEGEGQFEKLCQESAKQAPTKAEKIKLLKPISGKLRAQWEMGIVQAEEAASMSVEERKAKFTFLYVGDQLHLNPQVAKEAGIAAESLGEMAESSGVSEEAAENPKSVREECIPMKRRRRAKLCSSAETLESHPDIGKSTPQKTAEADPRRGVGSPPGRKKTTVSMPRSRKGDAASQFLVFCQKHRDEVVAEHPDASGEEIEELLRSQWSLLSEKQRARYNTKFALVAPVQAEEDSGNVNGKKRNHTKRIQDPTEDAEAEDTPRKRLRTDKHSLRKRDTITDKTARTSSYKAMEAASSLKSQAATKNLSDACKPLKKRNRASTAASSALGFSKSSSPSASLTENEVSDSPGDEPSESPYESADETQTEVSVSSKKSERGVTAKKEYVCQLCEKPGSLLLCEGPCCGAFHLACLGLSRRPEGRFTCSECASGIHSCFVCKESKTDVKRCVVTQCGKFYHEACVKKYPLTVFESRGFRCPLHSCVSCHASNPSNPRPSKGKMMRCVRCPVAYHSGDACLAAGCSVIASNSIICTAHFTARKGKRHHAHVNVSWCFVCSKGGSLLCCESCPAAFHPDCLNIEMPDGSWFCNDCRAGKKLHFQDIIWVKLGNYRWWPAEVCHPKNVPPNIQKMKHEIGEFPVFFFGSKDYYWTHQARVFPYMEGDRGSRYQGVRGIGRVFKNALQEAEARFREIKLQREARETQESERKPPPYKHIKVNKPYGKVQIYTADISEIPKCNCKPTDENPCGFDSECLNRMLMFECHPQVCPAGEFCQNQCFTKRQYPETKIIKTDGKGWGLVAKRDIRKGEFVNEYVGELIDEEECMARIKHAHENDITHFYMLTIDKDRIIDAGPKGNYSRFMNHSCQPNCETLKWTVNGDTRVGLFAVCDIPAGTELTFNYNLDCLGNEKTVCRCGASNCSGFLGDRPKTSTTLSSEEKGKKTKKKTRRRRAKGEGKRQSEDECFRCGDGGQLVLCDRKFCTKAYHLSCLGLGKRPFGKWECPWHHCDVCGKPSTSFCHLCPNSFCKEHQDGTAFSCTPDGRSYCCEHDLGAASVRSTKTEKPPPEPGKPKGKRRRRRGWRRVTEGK

[14] = molecular target: T4, Corticotropin-releasing factor receptor 2/Corticotropin-releasing factor-binding protein (Homo sapiens, UniProt P24387+Q13324); test: activators of CRF receptor 2 with binding protein – uHTS hits, confirmation (AID 602473); format: functional; details: read-out: EC50_Mean
T4 sequence (Q13324 whole entry): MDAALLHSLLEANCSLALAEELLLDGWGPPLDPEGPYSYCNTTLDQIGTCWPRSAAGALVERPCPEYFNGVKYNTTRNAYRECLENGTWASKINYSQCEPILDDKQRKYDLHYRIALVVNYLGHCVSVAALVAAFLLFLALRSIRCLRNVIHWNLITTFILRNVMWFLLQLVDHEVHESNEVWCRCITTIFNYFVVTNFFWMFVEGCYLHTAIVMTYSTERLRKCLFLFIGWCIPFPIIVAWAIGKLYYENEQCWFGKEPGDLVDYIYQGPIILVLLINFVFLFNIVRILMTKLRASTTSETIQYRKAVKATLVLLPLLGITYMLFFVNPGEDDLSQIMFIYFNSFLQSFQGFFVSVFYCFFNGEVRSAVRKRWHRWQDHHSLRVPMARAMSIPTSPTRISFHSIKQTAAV
T4 sequence (P24387 whole entry): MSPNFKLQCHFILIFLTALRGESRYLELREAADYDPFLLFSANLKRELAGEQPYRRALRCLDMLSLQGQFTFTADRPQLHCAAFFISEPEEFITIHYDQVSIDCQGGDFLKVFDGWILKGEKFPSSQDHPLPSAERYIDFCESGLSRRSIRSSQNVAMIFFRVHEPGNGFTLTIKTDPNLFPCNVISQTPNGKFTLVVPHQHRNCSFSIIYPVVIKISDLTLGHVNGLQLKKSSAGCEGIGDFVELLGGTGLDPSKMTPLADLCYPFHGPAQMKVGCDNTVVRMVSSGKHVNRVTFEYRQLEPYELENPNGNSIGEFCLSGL

[15] = inhibitors of PGC1a acetylation in cells, dose response, cell-based, cherry-picked samples (AID 720514); format: functional;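 note: potency may reflect raised or lowered acetylation signal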
[16] = HCT116 cell viability decrease, GSK3B pretreatment – CellTiter-Glo, IC50, dose response (AID 1117339); format: functional; details: HCT-116
Paired box protein Pax-8 = Paired box protein Pax-8 (Homo sapiens, UniProt Q06710); test: inhibitors of PAX8-driven TPO luciferase reporter, dose response, RMG-I cells, cherry-pick (AID 687027); format: functional, cell-based;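 note: luciferase reporter driven by Pax8 target thyroperoxidase promoter measured by SteadyGlo luminescence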
Paired box protein Pax-8, sequence (Q06710 whole entry): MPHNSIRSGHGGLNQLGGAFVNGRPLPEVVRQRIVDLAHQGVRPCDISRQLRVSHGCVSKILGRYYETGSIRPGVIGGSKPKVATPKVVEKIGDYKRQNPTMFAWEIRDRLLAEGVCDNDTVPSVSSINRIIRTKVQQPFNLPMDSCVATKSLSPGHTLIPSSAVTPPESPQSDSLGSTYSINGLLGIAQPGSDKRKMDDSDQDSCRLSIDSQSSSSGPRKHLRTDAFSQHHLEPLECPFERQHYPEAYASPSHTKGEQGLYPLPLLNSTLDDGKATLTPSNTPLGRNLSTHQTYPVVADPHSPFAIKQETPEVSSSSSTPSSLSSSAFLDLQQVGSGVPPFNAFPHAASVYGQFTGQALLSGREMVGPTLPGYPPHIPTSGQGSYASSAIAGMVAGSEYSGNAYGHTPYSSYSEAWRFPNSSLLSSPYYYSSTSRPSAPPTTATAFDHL

[17] = cytotoxicity in OVCAR8 ovarian cancer cells, dose response, PAX8 project, cell-based, plate reader, dry powder samples (AID 743197); format: functional; details: OVCAR-8
[18] = IGROV1 ovarian cancer cell cytotoxicity, dose response, PAX8 inhibitor project, plate reader, dry powder samples (AID 743043); format: functional, cell-based; details: IGROV-1
[19] = A2780 ovarian cancer cell cytotoxicity, dose response, cytotoxicity control, plate reader, dry powder samples (AID 743046); format: functional, cell-based
[20] = NIH:OVCAR-3 ovarian cancer cell cytotoxicity, dose response, PAX8 inhibitor project, plate reader, dry powder samples (AID 743044); format: functional, cell-based
[21] = A375 melanoma cell viability loss, dose response, counter-screen for MITF inhibitor project, CellTiter-Glo luminescence, dry powder, set 4 (AID 624364); format: functional, cell-based; details: A-375;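 note: A375 melanoma cells are MITF independent so this is a counter screen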
[22] = A375 melanoma cell cytotoxicity, dose response, counter-screen for MITF inhibitor project, CellTiter-Glo luminescence, dry powder, set 2 (AID 624489); format: functional, cell-based; details: A-375;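 note: actives are compounds lowering A375 viability meaning general cytotoxicity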

Structure (SMILES): CCCN(CCC)C(=O)Cn1c(=O)n(CCC(=O)NCCc2ccccc2)c(=O)c2ccccc21
IC50 [1]: > 109 µM (inactive)
IC50 [2]: > 83.3 µM (inactive)

IC50 (Protein Tat): > 100 µM (active)
Structure (SMILES): Cc1ccc(CCC(=O)Nc2ccc(S(N)(=O)=O)cc2)o1

Structure (SMILES): CCCCOC(=O)c1ccc(N)cc1 [BUTAMBEN]
IC50 [3]: 0.137 µM (active)
IC50 [4]: > 20 µM (inactive)
IC50 [5]: 0.586 µM (active)
IC50 [6]: > 20 µM (inactive)
IC50 [7]: > 10 µM (inactive)
IC50 [8]: 4.56 µM (active)
IC50 [9]: > 20 µM (inactive)
IC50 [10]: > 20 µM (inactive)
IC50 [11]: > 10 µM (inactive)

Structure (SMILES): [O-][n+]1ccc(C2CC2)cc1
IC50 [1]: > 109 µM (inactive)
IC50 [2]: > 83.4 µM (inactive)

AC50 (Caspase-6): 3.93 µM (active)
EC50 [12]: 95.4 µM (inactive)
AC50 (Caspase-7): 8.13 µM (active)
AC50 [13]: 12.7 µM (active)
EC50 [14]: 5.14 µM (active)
Structure (SMILES): COCCn1c2nc(=O)n(-c3ccccc3)c(=O)c-2nc2ccccc21

Structure (SMILES): O=C1C=CCCN1C(=O)/C=C/c1cccc(C(F)(F)F)c1
AC50 [15]: 1.77 µM (active)

Structure (SMILES): COc1ccc2cc1Oc1ccc(cc1)C[C@H]1c3c(cc4c(c3Oc3cc5c(cc3OC)CCN(C)[C@@H]5C2)OCO4)CCN1C [CEPHARANTHINE]
IC50 [3]: 3.79 µM (active)
IC50 [16]: 3.57 µM (active)
IC50 [5]: 0.308 µM (active)
IC50 [7]: > 10 µM (inactive)
IC50 [9]: 1.36 µM (active)
IC50 [10]: 1.43 µM (active)
IC50 [11]: > 10 µM (inactive)

Structure (SMILES): C[C@@H]1CCCCO[C@H](CN(C)Cc2ccc(C(F)(F)F)cc2)[C@H](C)CN([C@@H](C)CO)C(=O)c2cc(NS(=O)(=O)c3ccc(F)cc3)ccc2O1
AC50 (Paired box protein Pax-8): 5.17 µM (active)
AC50 [17]: 36.9 µM (active)
AC50 [18]: 37 µM (active)
AC50 [19]: 55.3 µM (active)
AC50 [20]: 24 µM (active)

Structure (SMILES): C[C@@H](NC1=C(Nc2ccccc2)C(=O)c2ccccc2C1=O)c1ccccc1
AC50 [21]: > 70 µM (inactive)
AC50 [22]: 48.5 µM (active)

Structure (SMILES): C[C@H]1CN([C@@H](C)CO)S(=O)(=O)c2ccc(C#Cc3ccccc3F)cc2O[C@@H]1CN(C)CC1CCOCC1
AC50 (Paired box protein Pax-8): 10.4 µM (active)
AC50 [17]: 28.9 µM (active)
AC50 [19]: < 0.26 µM (active)
AC50 [20]: 34.1 µM (active)
